Results published in patent US7268139B2, “Methods of promoting osteogenesis” (Scios, Inc., priority 2002, dated 2007).

Experiments:
[1] = test system: mouse model of RA (collagen type II arthritis); assay: Murine collagen type II arthritis, early and advanced disease; type: in vivo
Procedure: A p38α MAP kinase inhibitor (compound 162, Table B) was evaluated to determine whether a p38 inhibitor could modulate cartilage and bone destruction in a mouse model of RA. Induction of RA was achieved using bovine type II cartilage (100 ug/kg, subcutaneous on days 0 and 21) and bacterial lipopolysaccharide (50 ug/mouse, intraperitoneal on day 22).
Oral treatment was vehicle alone (1% PEG 400, bid) or the p38 inhibitor (90 mg/kg bid). The duration of treatment was 10 and 20 days in mice with early onset or advanced disease, respectively. Treatment was initiated in mice with early onset or advanced disease. Disease state was determined by clinical scoring performed in a blinded protocol that assigned a maximum per paw value of 3 based upon degree of erythema and swelling observed. Early or advanced disease was judged by clinical scoring, 1.6+0.6 (mean+/−std dev) on day 24 and 9.1±2.6 on day 30, respectively.

[2] = test system: closed femur fractures in female retired breeder Sprague-Dawley rats; assay: Closed femur fracture healing in rats, histology; type: in vivo, rat; conditions: for Fracture callus histology: two weeks post-fracture
Procedure: Retired breeder female Sprague-Dawley rats were purchased from Taconic Farms. The rats were housed in pairs and given food and water ad libitum. A total of 124 rats were purchased for these experiments (Table 4). However, only 65 rats were used for the final set of experiments as described in Table 4. Drugs were first administered to the rats by gavage using PEG300 (Sigma) as a carrier (0.5 ml per kg). […] The p38 MAP kinase inhibitor used in the experiments is compound 25, Table B. Rofecoxib was obtained by pulverizing Vioxx pills (Merck).
(§1) Rats were anesthetized with a ketamine-xylazine mixture. The right hindlimb was shaved, and cleansed with betadine. A medial parapatellar incision was made through the skin and underlying muscle to the distal end of the femur. The patella was dislocated laterally to expose the femoral condyles. A 20 g needle was used to drill a hole into the distal end of the femur, between the condyles, and then used to ream the femoral canal. A 0.81 mm diameter stainless steel wire was then inserted into the femoral condyle and tamped into the proximal end of the femur. The rod was then trimmed as close as possible to the femoral condyles with wire cutters. The incision was closed in two layers with resorbable Vicryl sutures. A mid-shaft transverse fracture was made in the right femur using a three-point bending device as described previously (Bonnarens, F. and Einhorn, T. A., J. Orthop. Res. 2:97-101 (1984)).
Femurs were dissected from rats at 2, 4, 6, and 8 weeks as detailed in Appendix A. Soft tissue was dissected from the femurs and the femurs were fixed overnight in buffered formalin. The femurs were then embedded in polymethylmethacrylate (PMMA) following standard procedures. Longitudinal sections (˜200 um thick) were cut from the PMMA blocks and ground and polished to a thickness of approximately 50-100 um. The sections were then stained with Van Gieson's picrofuschin and Stevenel's Blue. […] Sections were photographed with an Olympus BH2 microscope.

fracture healing in rats = assay: Prior experiments: fracture healing in rats treated with a COX-2 inhibitor; type: in vivo, rat
Description: The prior set of experiments examining the effects of COX-2-selective NSAIDs on fracture healing used retired breeder male Sprague-Dawley rats with an average size of approximately 600 g. To stabilize the femur fractures in these animals, a stainless steel rod with a diameter of 1.1 mm was used. This same diameter rod was continually used during the initial phases of this study even though 250-300 g retired breeder female Sprague-Dawley rats were used.

[3] = test system: closed femur fractures in female retired breeder Sprague-Dawley rats; assay: Closed femur fracture healing in rats, radiographic analysis; type: in vivo, rat; conditions: for Radiographic score, Mean: Group C rats, score 0 to 4
Procedure: Closed femur fractures were made in female retired breeder Sprague-Dawley rats. The rats were given oral doses of the p38 MAP kinase inhibitor (compound 25, Table B)(30 mg/kg) once or twice per day and either vehicle only (control) or rofecoxib (Vioxx, 3 mg/kg, once a day) as a positive control for fracture inhibition.
(§2) Retired breeder female Sprague-Dawley rats were purchased from Taconic Farms. The rats were housed in pairs and given food and water ad libitum. A total of 124 rats were purchased for these experiments (Table 4). However, only 65 rats were used for the final set of experiments as described in Table 4. Drugs were first administered to the rats by gavage using PEG300 (Sigma) as a carrier (0.5 ml per kg). Rats were initially gavaged with drugs 6 hours after surgery (between 4 and 6 PM on day 1) and then twice/day afterwards for 5 days (between 6-8 AM and again between 5-7 PM). The p38 MAP kinase inhibitor used in the experiments is compound 25, Table B. Rofecoxib was obtained by pulverizing Vioxx pills (Merck).
as §1
Radiographs were made using an HP Faxitron and Kodak MINR2000 mammography film. Radiographs were photographed with and Olympus C-3040 digital camera for figure preparation. The 4 week post-fracture radiographs from all the rats that had survived to 4 weeks in Group C (rats 60-124) and which were not comminuted, infected, or destabilized were scored as follows. One point was assigned to each radiograph in which a cortex of the fracture callus appeared bridged and/or where the cortical bone fracture site appeared to be bridged by new bone. Thus a radiograph could have a minimal score of 0 or a maximal score of 4.

[4] = test system: closed femur fractures in female retired breeder Sprague-Dawley rats; assay: Closed femur fracture healing in rats, torsional mechanical testing; type: in vivo, rat
Procedure: Torsional mechanical testing was performed on the fractured (right) and contralateral (left) femurs from control, rofecoxib (3 mg/kg/day); p38 MAP kinase inhibitor (30 mg/kg/day), and p38 MAP kinase inhibitor (2×30 mg/kg/day). The stabilizing rods were removed from the femurs prior to testing and the femurs were wrapped in saline soaked gauze to prevent dehydration prior to testing. The ends of the femurs were potted in hex nuts with Wood's metal and the peak torque and angle failure determined using an MTS servohydraulic mechanical testing machine and a 20 Nm reaction torque load cell as per standard procedures (Simon, A. M. et al., J. Bone Miner. Res. 17:963-976 (2002)). Femur and fracture callus dimensions and gage length were measured before and after mechanical testing using digital calipers. The values obtained were used to calculate torsional rigidity, and shear stress as described (Simon, A. M. et al., J. Bone Min. Res., in press (2002)). Finally, the data was normalized as the percentage of the fractured femur relative to the contralateral femur for each animal. This helped to reduce animal-to-animal variability.
as §2, §1
Rats with oblique, comminuted, or infected fractures were not used for mechanical testing (see Appendix A). Both femora were removed and cleaned of all soft tissue leaving the fracture callus undisturbed and then immediately processed for mechanical testing. The samples were wrapped in saline soaked gauze to prevent dehydration between steps. Measurements of the femora were taken using digital calipers to determine femur length and external callus dimensions. The intramedullary pin was removed from the fractured femur. The femoral ends were potted in 1-inch hexnuts using a low melt temperature metal (Wood's metal, Alfa Aesar, Ward Mill, Mass.). Once potted, the gage length (L) of each femur was measured. Torsional testing was conducted using a servohydraulic testing machine (MTS, Eden, Praire, Minn.) with a 20 Nm reaction torque cell (Interface, Scottsdale, Ariz.). The testing was carried out to failure at a rate of 2°/sec and a data recording rate of 20 Hz. Both the fractured and intact femora were tested in internal rotation in proper anatomic orientation. The peak torque and angle at failure were calculated from the load-deformation curves. Internal fracture callus dimensions were measured after mechanical testing. […]

[5] = Group C, 4 weeks post-fracture, rofecoxib 3 mg/kg/day
[6] = Groups A and B, 8 weeks post-fx, rofecoxib 3 mg/kg/day
[7] = advanced disease, 90 mg/kg bid oral, 20 days
[8] = Group C, 4 weeks post-fracture, 30 mg/kg/day
[9] = Group C, 4 weeks post-fracture, 2×30 mg/kg/day
[10] = Groups A and B (rats 1-57), twice-a-day treated rats
[11] = Groups A and B, 4 weeks post-fx, 30 mg/kg/day
[12] = Groups A and B, 6 weeks post-fx, 30 mg/kg/day
[13] = Groups A and B, 6 weeks post-fx, 2×30 mg/kg/day
[14] = Groups A and B, 8 weeks post-fx, 2×30 mg/kg/day

C[C@@H]1CN(Cc2ccc(F)cc2)[C@@H](C)CN1C(=O)c1cc2c(C(=O)C(=O)N(C)C)c[nH]c2cc1Cl [compound 162] was tested, and the “Histological analysis of joint lesion morphology” value ([1]; treatment initiated at onset of disease, 90 mg/kg bid oral, 10 days) was “dramatic reduction in all aspects of joint lesion morphology including reduced cartilage and bone erosions” and the clinical scoring ([1]; treatment initiated at onset of disease, 90 mg/kg bid oral, 10 days, mean ± std dev, vehicle 7.0±3.4) was 2.4±1.5.

In the case of CS(=O)(=O)c1ccc(C2=C(c3ccccc3)C(=O)OC2)cc1 [Rofecoxib, rofecoxib, reference compound], the Fibrous non-unions ([2]; rofecoxib, 5 days of treatment) was “development of fibrous non-unions in some of the rofecoxib treated rats”, the Fracture callus histology ([2]; rofecoxib 3 mg/kg once a day) was “less woven bone formation was observed” and the Fracture healing (fracture healing in rats) was “dramatically impaired”. For the same compound, the “Radiographic score, Mean” value ([3]; 4 weeks post-fracture, rofecoxib 3 mg/kg oral once a day for 5 days) was 0.83, the “Bridging of the fracture in radiographs” value ([3]; 4 weeks post-fracture, rofecoxib 3 mg/kg once a day) was “little or no bridging was evident” and the “NSS = normalized shear stress” value [4, 5] was 13 ± 9. For the same compound, the “NTR = normalized torsional rigidity” value [4, 5] was 19 ± 9, the “NPT = normalized peak torque” value ([4]; Group C, 4 weeks post-fracture, rofecoxib 3 mg/kg/day, percentage of fractured femur relative to contralateral femur) was 32 ± 3 and the “NPT = normalized peak torque” value [4, 6] was 57 ± 42. For the same compound, the “NSS = normalized shear stress” value [4, 6] was 16 ± 8 and the “NTR = normalized torsional rigidity” value [4, 6] was 100 ± 82.

COc1cc2c(cc1C(=O)N1CCC(Cc3ccc(F)cc3)CC1)c(C(=O)C(=O)N(C)C)cn2C [compound 25] was tested, and the “Histological analysis of fracture healing (summary)” value ([2]; 30 mg/kg once or twice per day) was “enhanced fracture healing by increasing and/or accelerating calcified cartilage formation as well as new bone formation”, the “Amount of osteoclasts within the fracture callus” value ([2]; not quantified) was “appeared to approximate levels found in control rats” and the Fracture callus histology ([2]; 30 mg/kg once per day) was “a near normal amount of woven bone but more than normal amounts of chondrocytes”. The Fracture callus histology ([2]; 30 mg/kg twice per day) was “advanced healing with the fracture gap almost filled with newly formed woven bone”, the “Radiographic scores compared with control and rofecoxib” value ([3]; 4 week post-fracture radiographs, 30 mg/kg once or twice per day) was “significantly higher scores than the control or rofecoxib treated rats” and the “Radiographic score, Mean” value ([3]; 4 weeks post-fracture, 30 mg/kg oral once per day for 5 days) was 3.2. The “Radiographic score, Mean” value ([3]; 4 weeks post-fracture, 30 mg/kg oral twice per day for 5 days) was 3.75, the “Effect on fracture healing (overall)” value ([3]; oral 30 mg/kg once or twice per day) was “does not negatively affect fracture healing and can actually enhance or accelerate the healing process” and the “cartilage and bone healing by histological assessment” value [1, 7] was “evidence of cartilage and bone healing”. The “serum cartilage oligomeric matrix protein (COMP)” value [1, 7] was “reduced serum cartilage oligomeric matrix protein”, the osteoclast number ([1]; advanced disease, compared to baseline and vehicle treated groups) was “reduced osteoclast number” and the clinical scoring ([1]; treatment initiated in advanced disease, 90 mg/kg bid oral, 20 days, vehicle 9.1±2.2) was 4.9±1.7. For the same compound, the “Normalized peak torque compared with rofecoxib and control” value ([4]; Group C, 4 weeks post-fracture) was “significantly increased normalized peak torque relative to rofecoxib treated rats but not relative to the control animals”, the “NSS = normalized shear stress” value [4, 8] was 15 ± 8 and the “NTR = normalized torsional rigidity” value [4, 8] was 28 ± 24. For the same compound, the “NPT = normalized peak torque” value ([4]; Group C, 4 weeks post-fracture, 30 mg/kg/day, percentage of fractured relative to contralateral femur) was 50 ± 11, the “NSS = normalized shear stress” value [4, 9] was 10 ± 4 and the “NTR = normalized torsional rigidity” value [4, 9] was 61 ± 55. For the same compound, the “NPT = normalized peak torque” value ([4]; Group C, 4 weeks post-fracture, 2×30 mg/kg/day, percentage of fractured relative to contralateral femur) was 48 ± 14, the normalized peak torque [4, 10] was ~150% and the normalized torsional rigidity [4, 10] was ~150%. For the same compound, the “NPT = normalized peak torque” value [4, 11] was 57, the “NSS = normalized shear stress” value [4, 11] was 14.1 and the “NTR = normalized torsional rigidity” value [4, 11] was 69. The “NPT = normalized peak torque” value [4, 12] was 85 ± 17, the “NSS = normalized shear stress” value [4, 12] was 36 ± 11 and the “NTR = normalized torsional rigidity” value [4, 12] was 109 ± 52. For the same compound, the “NPT = normalized peak torque” value [4, 13] was 97, the “NSS = normalized shear stress” value [4, 13] was 63 and the “NTR = normalized torsional rigidity” value [4, 13] was 126. For the same compound, the “NPT = normalized peak torque” value [4, 14] was 158 ± 46, the “NSS = normalized shear stress” value [4, 14] was 45 ± 1 and the “NTR = normalized torsional rigidity” value [4, 14] was 156 ± 68.
